{
  "source": "patent US5843481A",
  "about": "“Treatment of proliferative disorders, metastasaes, and drug resistant tumors with vanadate compounds and derivatives or analogues thereof” (priority 1994, dated 1998)",
  "key": {"[1]": {"tested_on": "superoxides and H2O2", "assay": "Levels of superoxides and H2O2 in cells (conclusion of Example 1)", "type": "cell-based, bovine", "conditions": "conclusion from results", "protocol": "(§1) Bovine articular chondrocytes were isolated and plated as previously described (Kandel R. A. et al. Biochim. Biophys. Acta. 1053, 130-134, 1990). In order to determine the effect of orthovanadate on IL 1 and PMA (phorbol ester) induced responses, chondrocytes were incubated with orthovanadate (100 μM) for 2 hours before stimulation with IL 1 (10 ng/ml) or PMA ([…]). collagenase production was determined by incubating chondrocytes for 24 hours with IL 1 or PMA and the cell conditioned medium was assayed for collagenase activity using an ELISA procedure as described previously (Kandel et al. supra) PLA2 activity was measured by incorporating ^3 H-arachidonic acid (^3 H-AA) into the cells and then incubating the cells with medium containing 1 mg/ml BSA, either alone or in the presence of IL 1 or PMA, for 10 min. as previously described (Conquer, J. A. […], Biochim. Biophys. Acta. 1134, 1-6). The amount of ^3 H-AA liberated into the supernatant was determined. To measure PGE2 production, chondrocytes were incubated for 6 hours in Ham's F12 medium, either alone or with IL 1 or PMA. The supernatant was analyzed by RIA using an antibody specific for PGE2 (Dr. S. A. Jones, Mount Sinai Hospital, Toronto, Can.). In order to examine the expression of c-fos and c-jun, chondrocytes were incubated for 1 hour in the presence of IL-1, PMA or AA (3 μM). […]"}, "[2]": {"tested_on": "MDAY-D2", "assay": "MDAY-D2 tumor growth in mice, three vanadyl compounds, Example 6B", "type": "in vivo", "description": "(§2) In order to examine the ability of vanadyl compounds to reduce tumor formation, growth and metastases, a specific animal model which allows investigation of all of these processes in the same animal was chosen. This model involves the injection of a metastatic haematopoietic cell line, MDAY-D2, into mice subcutaneously. These cells form a tumor at the site of injection and its size can be easily determined. In addition, these cells metastasize to the liver and metastases can be detected histologically after day 17 to 19. This model provides a very sensitive and reproducible approach to investigate the effect of vanadyl compounds on tumor growth and metastases.\nIn a separate experiment using the same animal model, the effect of orthovanadate, vanadyl sulphate and vanadyl hydroperoxide administration on tumor growth in vivo was examined. On Day 1, 20 mice were injected with 2×10^5 MDAY-D2 cell subcutaneously. The mice were divided into four groups of five mice. At day 5, the animals were injected subcutaneously with 50 μl of water alone or containing 10 mg/ml of orthovanadate, 10 mg/ml of vanadyl sulphate, or 10 mg/ml of vanadyl hydroperoxide. This treatment was continued daily for 16 days. At day 21, the mice were sacrificed and the tumors dissected and weighed."}, "[3]": {"tested_on": "collagenase", "assay": "Collagenase production by chondrocytes (ELISA of conditioned medium)", "type": "cell-based, bovine", "conditions": "orthovanadate 100 uM, 2 hours before stimulation", "protocol": "as §1"}, "[4]": {"tested_on": "PLA2", "assay": "3H-arachidonic acid release by chondrocytes (PLA2 activity)", "type": "cell-based, bovine", "conditions": "orthovanadate 100 uM", "protocol": "as §1"}, "[5]": {"tested_on": "MDAY-D2", "assay": "MDAY-D2 tumor growth in mice, Example 6A", "type": "in vivo", "description": "as §2\nUsing the animal model described above, the effect of subcutaneous administration of orthovanadate on tumor growth was investigated. A total of 15 mice were injected subcutaneously with 1×10^5 MDAY-D2 cells on Day 1. On Day 5, small tumors could be observed at the site of injection. Five mice were injected daily with 50 μl of water alone and 10 mice were injected daily with water containing 10 mg/ml orthovanadate. On day 14, the mice were sacrificed. The tumors were removed from all the animals, photographed, and weighed. FIG. 11 compares sizes of tumors from two untreated and two orthovanadate treated mice. […] In animals treated with water alone, four mice had tumors weighing between 1.18 and 1.68 gms."}, "[6]": {"tested_on": "MDAY-D2", "assay": "Liver metastases of MDAY-D2 cells in mice (histology), Example 8", "type": "in vivo", "description": "as §2\nLivers were removed from animals treated as described above and prepared for histological examination. FIG. 16 compares liver sections from untreated (C), orthovanadate (VO)(500 μg/day) and vanadyl sulphate (VS)(500 μg/day) treated animals. Nodules are identified with an arrow."}, "[7]": {"tested_on": "MDAY-D2 and HTB14 cells", "assay": "Viability of proliferating tumor cell lines", "type": "cell-based, mouse (MDAY-D2); human (HTB14)", "protocol": "Fos and jun activity are also required for cellular proliferation in many tumor cell lines. Accordingly, the effect of orthovanadate on adherent cells and cell suspensions were examined. MDAY-D2 (a mouse lymphoid cell line grown in suspension) and HTB14 cells (an adherent human primary astrocytoma cell line) were incubated in media containing 0-50 μM orthovanadate for 48 hours. The cells were harvested and the number of viable cells determined."}},
  "data": [
    {"smiles": "[O]=[V]([O-])([O-])[O-]", "note": "[orthovanadate]", "values": [
      {"measurement": "levels of superoxides and H2O2 in cells", "setting": "[1]", "value": "indirectly reduce"},
      {"measurement": "effect on tumor growth, in words", "setting": "[2]; 10 mg/ml s.c. daily", "value": "most efficacy in reducing tumor growth"},
      {"measurement": "mice without detectable tumors", "setting": "[2]; 10 mg/ml s.c., day 21", "value": "one mouse did not have detectable tumors"},
      {"measurement": "animals that died", "setting": "[2]; 10 mg/ml, 50 μl s.c. daily for 16 days, groups of five mice", "value": "One animal died"},
      {"measurement": "collagenase production (IL 1 or PMA)", "setting": "[3]", "value": "completely inhibited"},
      {"measurement": "IL 1 or PMA induced release of 3H-AA", "setting": "[4]", "value": "did not inhibit"},
      {"measurement": "tumor size (five mice)", "setting": "[5]; 10 mg/ml s.c. daily, day 14, five of 10 mice", "value": "less than 0.16 gms"},
      {"measurement": "mice without detectable tumors", "setting": "[5]; 10 mg/ml, 50 μl s.c. daily, day 14, of 10 mice, FIG. 12", "value": 2, "unit": "mice"},
      {"measurement": "tumor size of treated mice versus untreated", "setting": "[5]; FIG. 11", "value": "either undetectable or considerably smaller"},
      {"measurement": "levels of metastases in liver", "setting": "[6]; 500 μg/day, FIG. 16", "value": "did not have detectable levels of metastases"},
      {"measurement": "effectiveness at preventing metastases", "setting": "[6]; preliminary results, liver histology", "value": "effective at preventing metastases"},
      {"measurement": "time by which cell death was observed", "setting": "[7]", "value": "≤ 24", "unit": "h"},
      {"measurement": "cell death, concentration dependence", "setting": "[7]; 0-50 μM, 48 hours, FIG. 7", "value": "concentration dependent increase in cell death"},
      {"measurement": "cell death completeness", "setting": "[7]; within 3 days of continuous treatment", "value": "over 98%"}
    ]}
  ]
}
